Data: patent US20100305068A1, “COMPOUNDS AND METHODS FOR MODULATING PROTEIN TRAFFICKING” (priority 2006, published 2010)

Each compound was assayed on pdr5 ypt1^ts cells (assay: microbe, parasite or virus in culture). Settings: not given.
Assay type: cell-based, yeast
From the text: The activity of the compounds as modulators of protein trafficking may be measured in the assays described herein that evaluate the ability of a compound to rescue an impairment in protein trafficking. For example, the yeast mutant cell line ypt1^ts can be used to identify compounds that rescue cells from the lethal phenotype of a mutant YPT1 allele (see, e.g., Examples and Schmitt et al. (1988) Cell 53:635-47). The activity may be measured, for example, in a whole yeast cell assay using 384-well screening protocol and an optical density measurement.
The yeast mutant cell line ypt1^ts suppresses, in a temperature dependent fashion, the dominant-lethal phenotype of a mutant YPT1 allele (Schmitt et al. (1988) Cell 53:635-47). ypt1^ts cells grow normally at temperatures up to 30° C., but are growth arrested at 37° C. (Id.).
A library of compounds (“The Spectrum Collection”) obtained from Microsource Discovery Systems, Inc. (Gaylordsville, Conn.) was screened to assess the ability of individual compounds to restore growth of ypt1^ts cells. Screening was carried out using ypt1^ts cells containing a mutation in the pdr5 gene (resulting in inactivation of a membrane efflux pump). The effect of the compounds was measured in pdr5 ypt1^ts cells cultured at 37° C.

Structure (SMILES)	optical density, 3.13 uM	optical density, 12.5 uM	optical density, 50 uM
C[C@]12CCC(=O)C[C@@H]1CC[C@@H]1[C@@H]2CC[C@]2(C)C(=O)CC[C@@H]12 [5alpha- ANDROSTAN- 3,17-DIONE]	0.11	0.16	0.319

Same assay, conditions: Saccharomyces cerevisiae; Table 2; lowest concentration tested giving growth above the 0 μM background; 37° C.; read-out: ypt1-ts MRC (minimal rescue concentration)

Structure (SMILES)	minimal effective concentration [µM]
C=C1C(=O)OC2CC1C(OC(C)=O)C/C(C)=C/CC/C(C)=C/CC[C@]2(C)O (stereo partly drawn) [CRASSIN ACETATE]	12.5
C[n+]1cc2c3c(ccc2c2ccc4cc5c(cc4c21)OCO5)OCO3.O=S(=O)([O-])O [SANGUINARINE SULFATE]	12.5
CCCc1occc(=O)c1/C=C/O [2-PROPYL-3- HYDRO[…]-4-ONE]	25
C=CCC1(C(C)CCC)C(=O)N=C([S-])NC1=O.[Na+] (stereo not drawn) [THIAMYLAL SODIUM, reference compound]	12.5
CC(C)N(C(=O)CCl)c1ccccc1 [PROPACHLOR]	6.25
CC(=O)O[C@@H]1c2c(ccc3ccc(=O)oc23)OC(C)(C)[C@@H]1OC(=O)CC(C)C [DIHYDROSAMIDIN]	12.5

Same assay, conditions: Table 2; 0.39 μM compound; 37° C.; background (0 μM) 0.058

Structure (SMILES)	optical density, ypt1-ts, 0.39
C=C1C(=O)OC2CC1C(OC(C)=O)C/C(C)=C/CC/C(C)=C/CC[C@]2(C)O (stereo partly drawn) [CRASSIN ACETATE]	0.084
C[n+]1cc2c3c(ccc2c2ccc4cc5c(cc4c21)OCO5)OCO3.O=S(=O)([O-])O [SANGUINARINE SULFATE]	0.092
CCCc1occc(=O)c1/C=C/O [2-PROPYL-3- HYDRO[…]-4-ONE]	0.091
C=CCC1(C(C)CCC)C(=O)N=C([S-])NC1=O.[Na+] (stereo not drawn) [THIAMYLAL SODIUM, reference compound]	0.089
CC(C)N(C(=O)CCl)c1ccccc1 [PROPACHLOR]	0.101
CC(=O)O[C@@H]1c2c(ccc3ccc(=O)oc23)OC(C)(C)[C@@H]1OC(=O)CC(C)C [DIHYDROSAMIDIN]	0.091

Same assay, conditions: Table 2; 0.78 μM compound; 37° C.; background (0 μM) 0.058

Structure (SMILES)	optical density, ypt1-ts, 0.78
C=C1C(=O)OC2CC1C(OC(C)=O)C/C(C)=C/CC/C(C)=C/CC[C@]2(C)O (stereo partly drawn) [CRASSIN ACETATE]	0.068
C[n+]1cc2c3c(ccc2c2ccc4cc5c(cc4c21)OCO5)OCO3.O=S(=O)([O-])O [SANGUINARINE SULFATE]	0.076
CCCc1occc(=O)c1/C=C/O [2-PROPYL-3- HYDRO[…]-4-ONE]	0.079
C=CCC1(C(C)CCC)C(=O)N=C([S-])NC1=O.[Na+] (stereo not drawn) [THIAMYLAL SODIUM, reference compound]	0.071
CC(C)N(C(=O)CCl)c1ccccc1 [PROPACHLOR]	0.085
CC(=O)O[C@@H]1c2c(ccc3ccc(=O)oc23)OC(C)(C)[C@@H]1OC(=O)CC(C)C [DIHYDROSAMIDIN]	0.068

Same assay, conditions: Table 2; 1.56 μM compound; 37° C.; background (0 μM) 0.058

Structure (SMILES)	optical density, ypt1-ts, 1.56
C=C1C(=O)OC2CC1C(OC(C)=O)C/C(C)=C/CC/C(C)=C/CC[C@]2(C)O (stereo partly drawn) [CRASSIN ACETATE]	0.075
C[n+]1cc2c3c(ccc2c2ccc4cc5c(cc4c21)OCO5)OCO3.O=S(=O)([O-])O [SANGUINARINE SULFATE]	0.077
CCCc1occc(=O)c1/C=C/O [2-PROPYL-3- HYDRO[…]-4-ONE]	0.083
C=CCC1(C(C)CCC)C(=O)N=C([S-])NC1=O.[Na+] (stereo not drawn) [THIAMYLAL SODIUM, reference compound]	0.089
CC(C)N(C(=O)CCl)c1ccccc1 [PROPACHLOR]	0.098
CC(=O)O[C@@H]1c2c(ccc3ccc(=O)oc23)OC(C)(C)[C@@H]1OC(=O)CC(C)C [DIHYDROSAMIDIN]	0.079

Same assay, conditions: Table 2; 3.13 μM compound; 37° C.; background (0 μM) 0.058

Structure (SMILES)	optical density, ypt1-ts, 3.13
C=C1C(=O)OC2CC1C(OC(C)=O)C/C(C)=C/CC/C(C)=C/CC[C@]2(C)O (stereo partly drawn) [CRASSIN ACETATE]	0.099
C[n+]1cc2c3c(ccc2c2ccc4cc5c(cc4c21)OCO5)OCO3.O=S(=O)([O-])O [SANGUINARINE SULFATE]	0.089
CCCc1occc(=O)c1/C=C/O [2-PROPYL-3- HYDRO[…]-4-ONE]	0.092
C=CCC1(C(C)CCC)C(=O)N=C([S-])NC1=O.[Na+] (stereo not drawn) [THIAMYLAL SODIUM, reference compound]	0.101
CC(C)N(C(=O)CCl)c1ccccc1 [PROPACHLOR]	0.121
CC(=O)O[C@@H]1c2c(ccc3ccc(=O)oc23)OC(C)(C)[C@@H]1OC(=O)CC(C)C [DIHYDROSAMIDIN]	0.105

Same assay, conditions: Table 2; 6.25 μM compound; 37° C.; background (0 μM) 0.058

Structure (SMILES)	optical density, ypt1-ts, 6.25
C=C1C(=O)OC2CC1C(OC(C)=O)C/C(C)=C/CC/C(C)=C/CC[C@]2(C)O (stereo partly drawn) [CRASSIN ACETATE]	0.107
C[n+]1cc2c3c(ccc2c2ccc4cc5c(cc4c21)OCO5)OCO3.O=S(=O)([O-])O [SANGUINARINE SULFATE]	0.111
CCCc1occc(=O)c1/C=C/O [2-PROPYL-3- HYDRO[…]-4-ONE]	0.088
C=CCC1(C(C)CCC)C(=O)N=C([S-])NC1=O.[Na+] (stereo not drawn) [THIAMYLAL SODIUM, reference compound]	0.103
CC(C)N(C(=O)CCl)c1ccccc1 [PROPACHLOR]	0.141
CC(=O)O[C@@H]1c2c(ccc3ccc(=O)oc23)OC(C)(C)[C@@H]1OC(=O)CC(C)C [DIHYDROSAMIDIN]	0.097

Same assay, conditions: Table 2; 12.5 μM compound; 37° C.; background (0 μM) 0.058

Structure (SMILES)	optical density, ypt1-ts, 12.5
C=C1C(=O)OC2CC1C(OC(C)=O)C/C(C)=C/CC/C(C)=C/CC[C@]2(C)O (stereo partly drawn) [CRASSIN ACETATE]	0.324
C[n+]1cc2c3c(ccc2c2ccc4cc5c(cc4c21)OCO5)OCO3.O=S(=O)([O-])O [SANGUINARINE SULFATE]	0.165
CCCc1occc(=O)c1/C=C/O [2-PROPYL-3- HYDRO[…]-4-ONE]	0.104
C=CCC1(C(C)CCC)C(=O)N=C([S-])NC1=O.[Na+] (stereo not drawn) [THIAMYLAL SODIUM, reference compound]	0.162
CC(C)N(C(=O)CCl)c1ccccc1 [PROPACHLOR]	0.177
CC(=O)O[C@@H]1c2c(ccc3ccc(=O)oc23)OC(C)(C)[C@@H]1OC(=O)CC(C)C [DIHYDROSAMIDIN]	0.14

Same assay, conditions: Table 2; 25 μM compound; 37° C.; background (0 μM) 0.058

Structure (SMILES)	optical density, ypt1-ts, 25
C=C1C(=O)OC2CC1C(OC(C)=O)C/C(C)=C/CC/C(C)=C/CC[C@]2(C)O (stereo partly drawn) [CRASSIN ACETATE]	0.443
C[n+]1cc2c3c(ccc2c2ccc4cc5c(cc4c21)OCO5)OCO3.O=S(=O)([O-])O [SANGUINARINE SULFATE]	0.345
CCCc1occc(=O)c1/C=C/O [2-PROPYL-3- HYDRO[…]-4-ONE]	0.126
C=CCC1(C(C)CCC)C(=O)N=C([S-])NC1=O.[Na+] (stereo not drawn) [THIAMYLAL SODIUM, reference compound]	0.209
CC(C)N(C(=O)CCl)c1ccccc1 [PROPACHLOR]	0.184
CC(=O)O[C@@H]1c2c(ccc3ccc(=O)oc23)OC(C)(C)[C@@H]1OC(=O)CC(C)C [DIHYDROSAMIDIN]	0.221
